Data published in US20230159532A1, “PARATHYROID HORMONE (PTH) RECEPTOR ANTAGONISTS AND USES THEREOF” (Crinetics Pharmaceuticals, Inc., priority 2021, published 2023).

target: T1, human PTHR1 receptor (Homo sapiens, UniProt Q03431); assay: Competitive antagonist binding assay for hPTH-R1 (radioactive competition binding, SPA beads); details: human PTHR1 membranes, [125I]-[Nle8,18,Tyr34]-PTH(1-34) 0.2 nM, 90 minutes at room temperature; read-out: hPTHR1 Ki
T1 construct: purchased Eurofins HTS030M
T1 sequence (Q03431 27-593): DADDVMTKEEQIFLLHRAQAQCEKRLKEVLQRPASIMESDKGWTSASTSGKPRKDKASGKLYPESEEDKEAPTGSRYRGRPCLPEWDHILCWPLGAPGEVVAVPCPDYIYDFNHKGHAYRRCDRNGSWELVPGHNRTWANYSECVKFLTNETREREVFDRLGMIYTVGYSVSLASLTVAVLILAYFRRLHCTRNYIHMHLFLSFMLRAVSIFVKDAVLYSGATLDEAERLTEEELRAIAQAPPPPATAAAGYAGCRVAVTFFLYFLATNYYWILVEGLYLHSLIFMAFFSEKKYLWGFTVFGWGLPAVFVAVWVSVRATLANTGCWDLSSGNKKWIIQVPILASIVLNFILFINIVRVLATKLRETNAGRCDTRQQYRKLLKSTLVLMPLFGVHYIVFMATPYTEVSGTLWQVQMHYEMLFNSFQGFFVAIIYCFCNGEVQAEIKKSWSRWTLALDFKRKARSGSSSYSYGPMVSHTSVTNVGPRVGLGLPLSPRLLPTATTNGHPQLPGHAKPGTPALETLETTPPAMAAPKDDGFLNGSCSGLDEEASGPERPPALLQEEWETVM
Procedure, shortened: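 Displacement of 0.2 nM radioiodinated [Nle8,18,Tyr34]-PTH(1-34) from membrane-bound human PTHR1 measured by scintillation proximity after 90 min at room temperature. Compounds typically 0-10,000 nM final, pH 7.4 HEPES/Mg/Ca buffer with BSA and detergent. Ki calculated from competition data.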

Molecule	Ki
CCN1C(=O)N(c2c(F)cc(NCCNCCO)cc2F)c2cc(C#N)ccc2-c2cc(F)ccc21 [3-18, 8-[2,6-difluoro-4-({2-[(2-hydroxyethyl)amino]ethyl}amino)phenyl]-10-ethyl-14-fluoro-9-oxo-8,10-diazatricyclo[9.4.0.0^2,7]pentadeca-1(11),2(7),3,5,12,14-hexaene-5-carbonitrile]	< 100 nM
CCN1C(=O)N(c2c(F)cc(NCCNCCO)cc2F)c2cc(Cl)ccc2-c2cc(C#N)ncc21 [3-22, 13-chloro-10-[2,6-difluoro-4-({2-[(2-hydroxyethyl)amino]ethyl}amino)phenyl]-8-ethyl-9-oxo-5,8,10-triazatricyclo[9.4.0.0^2,7]pentadeca-1(11),2(7),3,5,12,14-hexaene-4-carbonitrile]	< 100 nM
CCN1C(=O)N(c2c(F)cc(NCCNCCO)cc2F)c2cc(Cl)cnc2-c2cc(F)cnc21 [3-25, 5-chloro-8-[2,6-difluoro-4-({2-[(2-hydroxyethyl)amino]ethyl}amino)phenyl]-10-ethyl-14-fluoro-3,8,10,12-tetraazatricyclo[9.4.0.0^2,7]pentadeca-1(11),2(7),3,5,12,14-hexaen-9-one]	< 100 nM
[2-({2-[(4-{13-cyano-8-ethyl-4-fluoro-9-oxo-6,8,10-triazatricyclo[9.4.0.0^2,7]pentadeca-1(11),2(7),3,5,12,14-hexaen-10-yl}-3,5-difluorophenyl)amino]ethyl}amino)ethyl]urea [1-169]	< 100 nM

The remaining lines, values ahead:

Ki	Molecule
< 100 nM	CCN1C(=O)N(c2c(F)cc(NCCNC)cc2F)c2cc(C#N)ccc2-c2cc(F)ccc21 [3-19, 8-(2,6-difluoro-4-{[2-(methylamino)ethyl]amino}phenyl)-10-ethyl-14-fluoro-9-oxo-8,10-diazatricyclo[9.4.0.0^2,7]pentadeca-1(11),2(7),3,5,12,14-hexaene-5-carbonitrile]
< 100 nM	CCN1C(=O)N(c2c(F)cc(NCCNCCO)cc2F)c2cc(C#N)c(C)cc2-c2cc(F)cnc21 [3-20, 10-[2,6-difluoro-4-({2-[(2-hydroxyethyl)amino]ethyl}amino)phenyl]-8-ethyl-4-fluoro-14-methyl-9-oxo-6,8,10-triazatricyclo[9.4.0.0^2,7]pentadeca-1(11),2(7),3,5,12,14-hexaene-13-carbonitrile]
< 100 nM	CCN1C(=O)N(c2c(F)cc(NCCNCCO)cc2F)c2cc(Cl)cnc2-c2cc(Cl)cnc21 [3-21, 5,14-dichloro-8-[2,6-difluoro-4-({2-[(2-hydroxyethyl)amino]ethyl}amino)phenyl]-10-ethyl-3,8,10,12-tetraazatricyclo[9.4.0.0^2,7]pentadeca-1(11),2(7),3,5,12,14-hexaen-9-one]
< 100 nM	CCN1C(=O)N(c2c(F)cc(NCCNCCO)cc2F)c2cc(C#N)c(OC)cc2-c2cc(F)cnc21 [3-23, 10-[2,6-difluoro-4-({2-[(2-hydroxyethyl)amino]ethyl}amino)phenyl]-8-ethyl-4-fluoro-14-methoxy-9-oxo-6,8,10-triazatricyclo[9.4.0.0^2,7]pentadeca-1(11),2(7),3,5,12,14-hexaene-13-carbonitrile]
< 100 nM	CCN1C(=O)N(c2c(F)cc(NCCNC3CCOCC3)cc2F)c2cc(Cl)ccc2-c2cc(C#N)ncc21 [3-24, 13-chloro-10-[2,6-difluoro-4-({2-[(oxan-4-yl)amino]ethyl}amino)phenyl]-8-ethyl-9-oxo-5,8,10-triazatricyclo[9.4.0.0^2,7]pentadeca-1(11),2(7),3,5,12,14-hexaene-4-carbonitrile]
